Results on two compounds are retold here after patent US20250129083A1, “IMIDAZOTETRAZINE COMPOUNDS AND TREATMENT OF TMZ-RESISTANT CANCERS” (THE BOARD OF TRUSTEES OF THE UNIVERSITY OF ILLINOIS, priority 2022, published 2025).

The subject of one data set is cancer cells. As to the kind of experiment: Rapid cancer cell death phenotype. It is filed as cell-based. The settings on record: relative to TMZ. The text has this:
FIG. 8A-C. Rapid Cancer Cell Death Phenotype.

A short description of data set [1]: Assessment of hematological toxicity. In kind it is in vivo. The text has this: Arguably the most important question when designing an alkylating agent able to evade MGMT-mediated resistance is the resultant effect on hematological toxicity. MGMT operates as a systemic protectant against alkylating xenobiotics. […] Therefore, an MGMT-independent alkylating agent like CPZ could render off-target cells vulnerable to irreparable DNA alkylation and result in a similar degree of toxicity. We hypothesized that the increased BBB permeability of CPZ would divert enough of the drug to the brain such that it could be tolerated at a therapeutically useful dose. The hematological effects of a single dose of TMZ or CPZ were compared head-to-head in vivo. Mice were treated with 125 mg/kg TMZ or CPZ intravenously; this dose was selected because 125 mg/kg TMZ is known to induce nonlethal toxicity in mice. After 7 days, the mice were sacrificed and complete blood counts were obtained. […] Additionally, the maximum tolerated dose (MTD) of CPZ was determined to be 66 mg/kg when dosed intraperitoneally (IP), once-per-day over five days. This matches the reported MTD of TMZ at the same schedule (˜66 mg/kg).
Assessment of Hematological Toxicity. Male CD-1 IGS mice (n≥3 mice/group) were administered a single dose of 125 mg/kg compound intravenously. Imidazotetrazines were formulated with DMSO, Tween-20, and 30% (w/v) SBE-PCD in sterile water immediately prior to injection. […]

A short description of data set [2]: Blood-brain barrier permeability. The settings on record: mice; 25 mg/kg IV; 15 minutes.
Protocol: Biodistribution and Toxicity Studies. […] Brain tissue and blood were collected from each mouse and immediately acidified to prevent prodrug degradation. The concentration of each compound in the serum (FIG. 4A) and brain (FIG. 4B) were quantified by LC-MS/MS.
CD-1 IGS mice were administered compound in 5% DMSO, 10% Tween-20, and 85% SPE-PCD in sterile water (30% w/v) at 25 mg/kg via lateral tail vein injection. Fifteen minutes post injection, mice were sacrificed and blood was collected by lacerating the right auricle with iris scissors. An 18 gauge angiocatheter was inserted through the left ventricle, and all residual circulatory volume was removed by perfusing 0.9% saline solution via an analog peristaltic pump. Blood samples were immediately centrifuged at 13,000 rcf for five minutes and the supernatant collected and acidified with 8.5% aqueous H3PO4. Brains were harvested from the cranial vault, acidified with 0.3% aqueous H3PO4 and flash frozen. Homogenized brain samples were centrifuged twice at 13,000 rcf for ten minutes and supernatant and tissue debris were separated. The resultant supernatant was analyzed, along with plasma, by LC-MS/MS to determine compound concentrations.
The subject of the next data set is genomic DNA of D54 cells. Briefly: Quantitation of O6-guanine DNA adducts in cells, D54. It is filed as cell-based. The settings on record: MGMT-negative; LC-MS/MS. The method, then:
Importantly, because CPZ was designed to release a different active species than TMZ, the alkylation pattern in a cellular context is likely different. Therefore, to assess if alkylation still occurs with CPZ, a DNA alkylation assay was performed. GL261 cells were treated with 100, 300, or 500 μM TMZ or CPZ for 8 hours after which the cells were harvested and genomic DNA was extracted and subsequently hydrolyzed to constituent deoxyribonucleosides. LC-MS/MS analysis was employed to quantify the amount of O^6-methyl-2′-deoxyguanosine (O^6-Me-dG) or O^6-propargylated-2′-O^6-deoxyguanosine (O^6-Prop-dG) in each sample.
Quantitation of O^6-guanine DNA Adducts in Cells. GL261, A172, or D54 cells were plated at 1×10^6 c/w in a 6-well plate before they were treated with compound at the indicated concentration (1% final concentration DMSO). After incubation for the indicated time, the cells were harvested and pelleted. Genomic DNA was extracted using the DNeasy Blood & Tissue Kit (Qiagen, ID: 69504). DNA was then precipitated using the following procedure: 1/10 v/v […] sodium acetate (pH 5.2) and 2.5× v/v ethanol was added to each sample which was then kept at −80° C. for 1 h. […] Hydrolyzed samples were then submitted for LC-MS/MS quantitation along with a synthetic standard. Samples were analyzed with a 5500 QTRAP LC/MS/MS system (AB Sciex) with a 1200 series HPLC system (Agilent).

Data set [3] can be described thus: Hepatic metabolism: stability in mouse liver microsomes. It is filed as in vitro ADME. (In general: Microsomes from liver hold many membrane-bound enzymes, among them those of drug oxidation.)
For data set [4] the following is noted: cited from earlier work.
The nature of the next data set: Brain tissue binding. In kind it is in vitro ADME. The settings on record: 10 uM, 1 h at 37 C in brain tissue homogenate.
Data set [5] is described as follows: Syngeneic subcutaneous model. In kind it is in vivo. The settings on record: C57BL/6 mice, 1×10^6 cells; 50 mg/kg IV 1×/day over 5 days from day 5. The method, then: FIG. 10A-B. Syngeneic Subcutaneous Model (A, B). TABZ and TMZ in vivo: C57BL/6 mice were inoculated with 1×10^6 cells and treated xl/day over 5 days with either vehicle, TMZ, or TABZ (via IV, 50 mg/kg, starting on day 5).

For the compound `C#CCn1nnc2c(Cl)ncn2c1=O` [CPZ, 8-chloro-3-(prop-2-yn-1-yl)imidazo[5,1-d][1,2,3,5]tetrazin-4(3H)-one], the “Speed of cell death induction” value in the data set on cancer cells is reported as “induce cell death quickly relative to TMZ”. Further, the “Other hematological symptoms such as thrombocytopenia” value in data set [1] (mouse, in vivo, iv, 125 mg/kg) is recorded as “did not give rise to other hematological symptoms such as thrombocytopenia”. The “Increase in brain distribution relative to TMZ” value in data set [2] is given as over 10 fold. Moreover, in the data set on genomic DNA of D54 cells, the “O6-dG alkylation adducts, D54” value was “did not harbor measurable levels of the propargyl adduct”.

For `Cn1nnc2c(C(N)=O)ncn2c1=O` [TMZ, temozolomide, reference compound], the “White blood cell, lymphocyte, and neutrophil counts” value in data set [1] (mice, single 125 mg/kg IV dose, 7 days) is “depletions in white blood cells, lymphocytes, and neutrophils”. The “Stability (2 h, with MLM)” value in data set [3] (percentage remaining relative to t0, mouse liver microsomes, SEM, n ≥ 2) is 95 ± 1%. For the same compound, the “Stability (2 h, no MLM)” value in data set [3] (percentage remaining, microsomes replaced with PBS) came out at 92 ± 0.2%. Further, in data set [4] (human patients), the “Half-life in vivo (human pharmacokinetics)” value is 1.5 to 2 h. The “Cerebral spinal fluid concentration as percentage of plasma concentration” value in data set [4] (humans) is reported as “about 20%”. Besides, in “Brain tissue binding”, the “Brain tissue binding, insoluble fraction, tissue homogenizer” value came out at 40 ± 5%; the “Brain tissue binding, insoluble fraction, ultrasonication” value is on record as 30 ± 3%; the “Brain tissue binding, soluble fraction, tissue homogenizer” value came to 59 ± 5%; the “Brain tissue binding, soluble fraction, ultrasonication” value stood at 66 ± 3%. Further, the Tumor growth entry in data set [5] is given as “exacerbation of tumor growth”. Also, the “O6-dG alkylation adducts, D54” value in the data set on genomic DNA of D54 cells was “dose-dependent increase in methyl adducts”.
